System: Min6 cell
Test: Insulin secretion response of beta cell line to formula I compounds (insulin ELISA)
Format: cell-based
Settings: rank according to % increase versus control at most effective dose
Outline: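 After compound or vehicle exposure, Min6 cells were held 2 h in glucose-free medium and preincubated 30 min at 37° C in glucose-free KRBH (pH 7.4, 0.1% BSA). They were then incubated 30 min at 37° C in KRBH with varying glucose. Secreted insulin and acid-ethanol-extracted intracellular insulin were measured by ELISA.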

Row | Structure (SMILES) | Insulin secretion (Min6 cell) Range 1 to 5
1 | O=C1CCN(CC(O)c2ccc(Cl)cc2)c2ccc3c(c2CN1C1CC1)OCCO3 (stereo not drawn) [Compound 97, 7-[2-(4-chlorophenyl)-2-hydroxyethyl]-11-cyclopropyl-2,3,8,9,11,12-hexahydro[1,4]dioxino[2,3-h][1,5]benzodiazocin-10(7H)-one] | 2 (2: 110-120% of control)
2 | COc1ccc2c(c1)CN(C1CC1)C(=O)CCN2C(=O)c1ncoc1-c1ccccc1 [Compound 98, 5-cyclopropyl-8-methoxy-1-(5-phenyloxazole-4-carbonyl)-2,3,5,6-tetrahydrobenzo[b][1,5]diazocin-4(1H)-one] | 2 (2: 110-120% of control)
3 | COc1ccc2c(c1)CN(C1CC1)C(=O)CCN2C(=O)c1cc(C)nn1C [Compound 99, 5-cyclopropyl-1-(1,3-dimethyl-1H-pyrazole-5-carbonyl)-8-methoxy-2,3,5,6-tetrahydrobenzo[b][1,5]diazocin-4(1H)-one] | 1 (1: 90-110% of control)
4 | COc1ccc2c(c1)CN(C1CC1)C(=O)CCN2C(=O)c1c(C)noc1C [Compound 100, 5-cyclopropyl-1-(3,5-dimethylisoxazole-4-carbonyl)-8-methoxy-2,3,5,6-tetrahydrobenzo[b][1,5]diazocin-4(1H)-one] | 1 (1: 90-110% of control)
5 | COc1ccc2c(c1)CN(C1CC1)C(=O)CCN2C(=O)c1cnccn1 [Compound 101, 5-cyclopropyl-8-methoxy-1-(pyrazine-2-carbonyl)-2,3,5,6-tetrahydrobenzo[b][1,5]diazocin-4(1H)-one] | 2 (2: 110-120% of control)
6 | O=C(c1ncoc1-c1ccccc1)N1CCC(=O)N(C2CC2)Cc2cccnc21 [Compound 103, 5-cyclopropyl-1-(5-phenyloxazole-4-carbonyl)-2,3,5,6-tetrahydropyrido[2,3-b][1,5]diazocin-4(1H)-one] | 2 (2: 110-120% of control)
7 | Cc1cc(C(=O)N2CCC(=O)N(C3CC3)Cc3cccnc32)no1 [Compound 104, 5-cyclopropyl-1-(5-methylisoxazole-3-carbonyl)-2,3,5,6-tetrahydropyrido[2,3-b][1,5]diazocin-4(1H)-one] | 4 (4: 140-170% of control)
8 | Cc1cc(C(=O)N2CCC(=O)N(C3CC3)Cc3cccnc32)n(C)n1 [Compound 105, 5-cyclopropyl-1-(1,3-dimethyl-1H-pyrazole-5-carbonyl)-2,3,5,6-tetrahydropyrido[2,3-b][1,5]diazocin-4(1H)-one] | 3 (3: 120-140% of control)
9 | Cc1noc(C)c1C(=O)N1CCC(=O)N(C2CC2)Cc2cccnc21 [Compound 106, 5-cyclopropyl-1-(3,5-dimethylisoxazole-4-carbonyl)-2,3,5,6-tetrahydropyrido[2,3-b][1,5]diazocin-4(1H)-one] | 1 (1: 90-110% of control)
10 | O=C(c1cnccn1)N1CCC(=O)N(C2CC2)Cc2cccnc21 [Compound 107, 5-cyclopropyl-1-(pyrazine-2-carbonyl)-2,3,5,6-tetrahydropyrido[2,3-b][1,5]diazocin-4(1H)-one] | 2 (2: 110-120% of control)
11 | O=C1CCNc2ccc(OC(F)F)cc2CN1C1CC1 [Compound 108, 5-cyclopropyl-8-(difluoromethoxy)-2,3,5,6-tetrahydrobenzo[b][1,5]diazocin-4(1H)-one] | 2 (2: 110-120% of control)
12 | COc1ccc2c(c1)CN(C1CC1)C(=O)CCN2C[C@@H](O)COc1cccc(F)c1 [Compound 109, (R)-5-cyclopropyl-1-(3-(3-fluorophenoxy)-2-hydroxypropyl)-8-methoxy-2,3,5,6-tetrahydrobenzo[b][1,5]diazocin-4(1H)-one] | 3 (3: 120-140% of control)
